Experimental findings from PMC5805748 (2018) are described below.

Molecules are shown by their SMILES.

In assay [1] the test system is VAV1-D (DNA, G4) GGGCAGGGAGGGAACTGGG
Put plainly: ITC. As to conditions: K+ 40 mM; 20 mM Tris-HCl, pH 7.4; 500 μM ligand into 25 μM DNA.

The test system of assay [2] is G-tripl-D (DNA, other) GGTTGGTGTGG
As to the kind of experiment: native PAGE post-staining. As to conditions: 20 μM ThT-E stain; no band.

For assay [3], the system named is 19AT-D (DNA, duplex) ACGTCGATTATAGACGAGC/GCTCGTCTATAATCGACGT
Put plainly: native PAGE post-staining. As to conditions: 20 μM ThT-E stain; no band; fluorescence rise below 3-fold.

Assay [4] relates to Bulges-TB1 (DNA, G4) TTGTGGTGGGTGGGTGGGT
Put plainly: fluorescence light-up. As to conditions: K+ 40 mM; 20 mM Tris-HCl, pH 7.4; 2 μM ThT-E; 46.05-fold.

The test system of assay [5] is dx12-D (DNA, duplex) GCGTGAGTTCGG/CCGAACTCACGC
As to the kind of experiment: native PAGE post-staining. As to conditions: 20 μM ThT-E stain; no band.

The test system of assay [6] is c-myc-D (DNA, G4) TGAGGGTGGGTAGGGTGGGTAA
Put plainly: UV-vis titration. As to conditions: 2 μM ThT-E, 0 to 8 μM DNA; 23 nm red shift.

Assay [7] concerns ERSI-D (DNA, G4) GGGTAGGGGCAAAGGGGCTGGGG
Put plainly: ITC. As to conditions: K+ 40 mM; 20 mM Tris-HCl, pH 7.4; 500 μM ligand into 25 μM DNA.

Assay [8] has as its system CT4-D (DNA, G4) GGGCTTTTGGGC
As to the kind of experiment: fluorescence light-up. As to conditions: K+ 40 mM; 20 mM Tris-HCl, pH 7.4; 2 μM ThT-E, 2 μM DNA.

The test system of assay [9] is B-raf-D (DNA, G4) GGGCGGGGAGGGGGAAGGGA
As to the kind of experiment: fluorescence light-up. As to conditions: K+ 40 mM; 20 mM Tris-HCl, pH 7.4; 2 μM ThT-E, 2 μM DNA.

Assay [10] has as its system BCL-2Mid-D (DNA, G4) GGGCGCGGGAGGAATTGGGCGGG
Put plainly: native PAGE post-staining. As to conditions: 20 μM ThT-E stain; band seen.

In assay [11] the test system is 32 Kras-D (DNA, G4) AGGGCGGTGTGGGAAGAGGGAAGAGGGGGAGG
Put plainly: fluorescence light-up. As to conditions: K+ 40 mM; 20 mM Tris-HCl, pH 7.4; 2 μM ThT-E, 2 μM DNA; 125-fold.

For assay [12], the system named is 21CTA-D (DNA, G4) GGGCTAGGGCTAGGGCTAGGG
Put plainly: native PAGE post-staining. As to conditions: 20 μM ThT-E stain; band seen.

Assay [13] deals with TBA-D (DNA, G4) GGTTGGTGTGGTTGG
As to the kind of experiment: fluorescence light-up. As to conditions: K+ 40 mM; 20 mM Tris-HCl, pH 7.4; 2 μM ThT-E, 2 μM DNA.

The subject of assay [14] is 22Ag-D (DNA, G4) AGGGTTAGGGTTAGGGTTAGGG
As to the kind of experiment: ITC. As to conditions: K+ 40 mM; 20 mM Tris-HCl, pH 7.4; 500 μM ligand into 25 μM DNA.

Assay [15] deals with c-myc-D (DNA, G4) TGAGGGTGGGTAGGGTGGGTAA
Put plainly: 1H NMR titration. As to conditions: K+ 40 mM; phosphate buffer, pH 7.4, 25 °C; stacks on 5'-end G-tetrad.

The subject of assay [16] is ADAM10-D (DNA, G4) GGGGGACGGGTAGGGGCGGGAGGTAGGGG
Put plainly: fluorescence light-up. As to conditions: K+ 40 mM; 20 mM Tris-HCl, pH 7.4; 2 μM ThT-E, 2 μM DNA; 159-fold.

Assay [17] concerns 45Ag-D (DNA, G4) GGGTTAGGGTTAGGGTTAGGGTTAGGGTTAGGGTTAGGGTTAGGG
As to the kind of experiment: fluorescence light-up. As to conditions: K+ 40 mM; 20 mM Tris-HCl, pH 7.4; 2 μM ThT-E, 2 μM DNA; 146-fold.

For assay [18], the system named is Insulin a2-D (DNA, G4) ACAGGGGTGTGGGGACAGGGGTGTGGGG
Put plainly: native PAGE post-staining. As to conditions: 20 μM ThT-E stain; band seen.

The subject of assay [19] is ssAf17-D (DNA, single strand) CTGAGTTGTATATATTCG
As to the kind of experiment: native PAGE post-staining. As to conditions: 20 μM ThT-E stain; no band; 2.77-fold fluorescence.

The subject of assay [20] is 35B1(Kras)-D (DNA, G4) AGGGCGGTGTGGGAAGAGGGAAGAGGGGGAGGCAG
Put plainly: CD titration. As to conditions: no added salt; 20 mM Tris-HCl, pH 7.4; 0 to 30 μM ThT; induces parallel G4.

Assay [21] has as its system 32 Kras-D (DNA, G4) AGGGCGGTGTGGGAAGAGGGAAGAGGGGGAGG
As to the kind of experiment: CD titration. As to conditions: no added salt; 20 mM Tris-HCl, pH 7.4; 0 to 30 μM ThT; induces parallel G4.

In the case of `CCN(CC)c1ccc(-c2sc3cc(C)ccc3[n+]2CC)cc1`, the dissociation constant in assay [1] stood at 74.73 µM; in assay [7] it was 56.81 µM; in [14] it was 17.78 µM. Moreover, the binding result in [2] is given as “no”; in [3] it was “no”; in assay [4] it was “yes”; in assay [5], “no”; in assay [6] it was “yes”; in assay [8], “weak”. In addition, the binding result in assay [9] is “yes”; in assay [10], “yes”; in assay [11] it was “yes”; in assay [12], “yes”; in assay [13], “weak”; in [15], “yes”. Further, the binding entry is “yes” in assay [16], “yes” in assay [17], “yes” in assay [18] and “no” in [19].

With `Cc1ccc2c(c1)sc(-c1ccc(N(C)C)cc1)[n+]2C`, the values for the dissociation constant in [1], in [7] and in assay [14] were 334.4 µM, 233.4 µM and 22.03 µM, respectively. Moreover, the binding result in [20] and in assay [21] was “yes” in each case.
